From patent US9908880B2, “Substituted imidazoquinolines” (4SC AG, priority 2008, dated 2018)

Assays:
[1] = tested on: Renca LacZ tumor cell lung metastases; experiment: Renca lung metastasis model
Experimental: (§1) In particular, female Balb/c mice (n=10) were treated for 4 consecutive days starting day 1 or day 8 after Renca LacZ tumor cell injection, respectively. The compounds were applied in 20% PEG, ODNs in 0.9% NaCl as indicated. Lungs were excised 25 days after tumor cell injection.
as §1, with “compounds (small molecules (SMOLs))” for “compounds”
Abstract 3552, Proc Am Cancer Res 48, 2007.
In particular, female Balb/c mice (n=10) were treated for 4 consecutive days starting day 1 or day 8 after Renca LacZ tumor cell injection, respectively. The SMOLs were applied in 20% PEG, the oligonucleotides in 0.9% NaCl as indicated. Lungs were excised 25 days after tumor cell injection (see FIG. 4A). Further, female Balb/c mice (n=5) were treated for 4 consecutive days as indicated. The SMOLs were applied in 20% PEG, oligonucleotides in 0.9% NaCl. At day 4 of treatment, blood was collected via orbital plexus and spleens were excised. Subsequently, mRNA was isolated for expression analysis via qPCR. Data were normalized to vehicle control (mean set to 1). Statistical evaluation was performed via Mann-Whitney test (see FIG. 4B). […]

[2] = tested on: superficial basal cell carcinomas; conditions: marketed 5% cream (Aldara), topical; cited from earlier work
[3] = tested on: PCIR-1 cells; experiment: Cytokine mRNA induction in PCIR-1 human cancer cell line (TaqMan PCR); assay type: cell-based; conditions: for induction of IP-10: after 15 h
Experimental: Expression of IL8 mRNA was measured with TaqMan PCR after 16 hours incubation of cells with H2006, LPS or Resiquimod alone and in combination with cloroquine.
Cellular assays using a human cancer cell line (PCIR-1) or human PBMC fractions to test compounds for activating TLR7 are established.
Specificity for TLR7 and 9 was checked by adding chloroquine, which abrogates signaling through endosomal TLRs. The PCIR-1 system is suited for measuring the interferone-linked cytokine IP10 by a bead-based assay in the 384-well format.
TLR mRNA Expression in PCIR-1 (TaqMan PCR Analysis)
Also response to poly I-C double-stranded RNA (TLR 3 ago); 40-fold induction of IP-10 after 15 h) and MALP-2 (TLR 2/6 hetero-dimer ago, 100-fold induction of IP-10 after 15 h) is detected.
In contrast TLR4 signaling by LPS is not affected (FIG. 1).

For `CCc1nc2c(N)nc3ccccc3c2n1CCCCN(C(C)=O)C1CCOC1C` (stereo not drawn) [Example III, 3-{acetyl[4-(4-amino-2-ethyl-1H-imidazo[4,5-c]quinolin-1-yl)butyl]amino}-2,5-anhydro-1,3,4-trideoxypentitol], the “anti-metastatic effect (clearance of the lungs)” value ([1]; short treatment (d1-4), FIG. 5) was “strong anti-metastatic effect with virtually complete clearance of the lungs”.

In the case of `CC(C)Cn1cnc2c(N)nc3ccccc3c21` [Imiquimod, imiquimod], the “5 year clearance of superficial basal cell carcinomas” value [2] is given as “approx 80%”.

With `CCN(CC)CCCC(C)Nc1ccnc2cc(Cl)ccc12` (stereo not drawn) [chloroquine] the “signaling via TLR7 and TLR9 on addition of chloroquine” value ([3]; FIG. 1, IL8 mRNA after 16 hours) was “completely blocked”.

With `Nc1nc2c(sc(=O)n2[C@@H]2O[C@H](CO)[C@@H](O)[C@H]2O)c(=O)[nH]1` [isatoribine, 7-thia-8-oxoguanosine] the “emergence of lung metastases” value ([1]; murine Renca lung metastasis model) was “virtually completely suppressed”.

For MALP-2, the “induction of IP-10” value [3] was 100 fold.

In the case of poly I-C, the “induction of IP-10” value [3] is reported as 40 fold.
